Key:
Type in all cases: cell-based
[1] = tested on: co-cultured osteoblast precursor MC3T3 and osteosarcoma cells; test: survival index of co-cultured cells after doxorubicin, 3D dynamic culture using a PCT (perfusion bioreactor)
Excerpt: FIG. 33 depicts a bioreactor system suitable for performing a therapeutic agent treatment test according to embodiments of the present disclosure. Reference numeral 902 represents a co-cultured 3D cancer model platform 902 including a PCT 101 (such as the one resulting from the co-culturing discussed above in connection with FIGS. 32A and 32B). The 3D cancer model platform 902 is inserted into a culture column 903 for dynamic therapeutic agent treatment. The culture column 903 is connected with a medium vessel 904 that is filled with a medium in which a therapeutic agent 901 is dissolved. Afterwards, a dynamic therapeutic agent treatment is employed for up to, but not limited to, about seven days. In an exemplary embodiment, the therapeutic agent 901 includes Doxorubicin with a concentration of about 0.5 mg/ml. However, the present disclosure is suitable for cancer treatment with various therapeutic agents including but not limited to Cisplatin, Methotrexate, Ifosfamide, Actinomycin D, Bleomycin, Vincristine, Cyclophosphamide, Paclitaxel, Carboplatin, or a combination of two more of the foregoing agents. In an exemplary embodiment, a flow rate of the therapeutic agent 901 medium into the culture column 903 is about 5 ml/min for about five minutes per day. […]

[2] = tested on: co-cultured osteoblast precursor MC3T3 and osteosarcoma cells; test: survival index of co-cultured cells after doxorubicin, 3D static culture using a PCT; settings: 3D static culture on PCT, 0.5 mg/ml doxorubicin
Excerpt: (§1) FIG. 37 depicts comparison of survival index of co-cultured cells onto a culture plate for 2D static culture without a porous ceramic template (PCT), 3D static culture using a PCT, and 3D dynamic culture using a PCT after treated with doxorubicin (DOX: therapeutic drug) for designated time. In this example, osteoblast precursor MC3T3 with 2.5×10^5 cell population and osteosarcoma with 1×10^5 cell population are deployed onto a 12 well culture plate for the 2D static culture. 2.5×10^5 MC3T3 cell and 1×10^5 osteosarcoma are also seeded onto a PCT that is placed in a 12 well culture plate for the 3D static culture. For the 3D dynamic culture, 2.5×10^5 MC3T3 cell and 1×10^5 osteosarcoma were seeded onto a PCT and held for two days under static culture condition, then relocated into a culture column and subjected to dynamic culture with doxorubicin (therapeutic agent) using a peristaltic perfusion pump. […] In this regard, the 3D dynamic culture system is considered an effective alternative method of mimicking in vivo cancer model for performing a therapeutic agent test and/or screening.

[3] = tested on: co-cultured osteoblast precursor MC3T3 and osteosarcoma cells; test: survival index of co-cultured cells after doxorubicin, 2D static culture on culture plate without PCT; settings: 0.5 mg/ml doxorubicin
Excerpt: as §1

`COc1cccc2c1C(=O)c1c(O)c3c(c(O)c1C2=O)C[C@@](O)(C(=O)CO)C[C@@H]3O[C@H]1C[C@H](N)[C@H](O)[C@H](C)O1` [doxorubicin] was tested, and the “reduction of survival index compared to control” value ([1]; 3D dynamic culture on PCT, 0.5 mg/ml doxorubicin, 5 ml/min flow rate for five minutes per day, three days) was “not significant”, the “cell survival index, 3D dynamic culture in comparison with 3D static culture” value ([1]; after doxorubicin treatment) was “significantly higher” and the “survival index compared to control” value [2] was “significant reduction”. The “survival index compared to control” value [3] was “significant reduction”.

From patent US20250011725A1, “TISSUE-[…] CERAMIC TEMPLATE AND USES THEREOF” (Osteogene Bio Inc., priority 2023, published 2025)
